What was measured:
[1] = system: VEGF; test: VEGF ELISA assay; type: cell-based; conditions: Homo sapiens; HEK293 cells; % of DFO stimulation
Method: HEK293 cells are seeded in 96-well poly-lysine coated plates at 20,000 ceils per well in DMEM (10% FBS, 1% NEAA, 0.1% glutamine). Following overnight incubation, the cells are washed with 100 uL of Opti-MEM (Gibco, Carlsbad, Calif.) to remove serum. Compound in DMSO is serially diluted (beginning with 100 μM) in Qpti-MEM and added to the cells. The conditioned media is analyzed for VEGF with a Quantikine human VEGF immunoassay kit (R&D Systems, Minneapolis, Minn.). Optical density measurements at 450 nm are recorded using the Spectra Max 250 (Molecular Devices, Sunnyvale, Calif.). Data defined as % of DFO stimulation is used to calculate EC50 values with GraphPad Prism 4 software (San Diego, Calif.).

[2] = biological target: human EGLN-1 (Homo sapiens (Human), UniProt Q9GZT9); test: EGLN-1 activity assay (MALDI-TOF MS); type: biochemical; conditions: read-out: EGLIN1 IC50
human EGLN-1, sequence (Q9GZT9 179-426): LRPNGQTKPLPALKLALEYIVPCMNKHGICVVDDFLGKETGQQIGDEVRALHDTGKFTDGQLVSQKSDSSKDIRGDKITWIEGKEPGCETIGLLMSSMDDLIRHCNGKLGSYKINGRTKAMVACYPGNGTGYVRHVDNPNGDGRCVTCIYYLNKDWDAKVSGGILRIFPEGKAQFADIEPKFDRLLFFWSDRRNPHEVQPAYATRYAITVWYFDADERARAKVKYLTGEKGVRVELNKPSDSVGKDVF
Method: (§1) Data defined as percent conversion of substrate to product is analyzed in GraphPad Prism 4 to calculate IC50 values.

[3] = biological target: human EGLN-3 (Homo sapiens (Human), UniProt Q9H6Z9); test: EGLN-3 activity assay (MALDI-TOF MS); type: biochemical; conditions: His-MBP-TVMV-EGLN-3 fusion; HIF-1α peptide 556-574 as substrate; read-out: EGLIN3 IC50
human EGLN-3, sequence (Q9H6Z9 whole entry, the tested form may be a part): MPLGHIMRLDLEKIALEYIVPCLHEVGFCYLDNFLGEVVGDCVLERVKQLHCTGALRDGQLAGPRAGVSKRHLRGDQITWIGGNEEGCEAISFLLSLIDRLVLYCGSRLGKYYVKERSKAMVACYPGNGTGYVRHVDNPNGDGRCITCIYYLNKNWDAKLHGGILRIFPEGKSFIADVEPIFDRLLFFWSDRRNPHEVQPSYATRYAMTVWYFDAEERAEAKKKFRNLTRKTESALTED
Method: as §1

[4] = system: EPO; test: Mouse serum EPO assay (mouse ischemic hindlimb study); type: in vivo
Method: (§2) Mouse Ischemic Hindlimb Study
(§3) All animal work is conducted in accordance with the Guide for the Care and Use of Laboratory Animals (National Academy of Sciences; Copyright©1996) and the Institutional Animal Care and Use Committee guidelines at Procter and Gamble Pharmaceuticals. We studied 9-10 week old male C57Bl/6 mice from Charles River Laboratory (Portage, Mich.). The mice are orally dosed with vehicle (aqueous carbonate buffer, 50 mM; pH 9.0) or compound 1 in vehicle at 50 mg/kg or 100 mg/kg. The animals are dosed three times: day 1 at 8 am and 5 pm, day 2 at […]. One hour after the first dose, unilateral arterial ligation is performed under anesthesia using isoflurane. The femoral artery is ligated proximal to the origin of the popliteal artery. The contralateral limb underwent a sham surgical procedure. Ligation is performed in an alternating fashion between right and left hindlimbs. Two hours after 8 am dosing on day 2, we obtained blood by ventricular stick while the mice are anesthetized with isoflurane. Serum samples for EPO analysis are obtained using gel clot serum separation tubes. Heart, liver, and gastrocnemius muscles are harvested, snap-frozen in liquid nitrogen, and stored in −80° C. until use.
The mouse serum EPO is detected using Mouse Quantikine Erythropoietin ELISA kit from R&D Systems according to manufacturer's ins tractions.

[5] = system: HIF-1α; test: Mouse tissue HIF Western blot analysis; type: in vivo; conditions: mouse liver, FIG. 1
Method: as §2, §3
Mouse Tissue HIF Western Blot Analysis
Tissues from mice stored at −80° C. are powdered with mortar and pestle chilled with liquid nitrogen. […]

| SMILES | EC50 [1] [µM] | other results |
| --- | --- | --- |
| COC(=O)CNC(=O)c1ncc(-c2cccc(Cl)c2)cc1O | 9.9 | – |
| Cc1ccc(-c2ccc(C(=O)NCC(=O)O)c(O)c2)cc1 | > 100 | – |
| COC(=O)CNC(=O)c1ncc(-c2ccccc2Cl)cc1O | 7.7 | – |
| Cc1ccc(Cl)cc1-c1cnc(C(=O)NCC(=O)O)c(O)c1 | 3.3 | – |
| CNC(=O)CNC(=O)c1ncc(-c2cccc(Cl)c2)cc1O | 1.4 | IC50 [2]: 1.2 µM; IC50 [3]: 1.3 µM; EPO response ([4]; in vivo response, mouse serum EPO): yes |
| N#Cc1cccc(-c2cnc(C(=O)NCC(=O)O)c(O)c2)c1 | > 100 | – |
| COC(=O)CNC(=O)c1ncc(-c2cccc(C(N)=O)c2)cc1O | 50.1 | – |
| COC(=O)CNC(=O)c1ncc(-c2cccc(C(=O)N3CCCC3)c2)cc1O | > 100 | – |
| O=C(O)CNC(=O)c1ncc(-c2cccc(C(=O)N3CCCC3)c2)cc1O | > 100 | – |
| O=C(O)CNC(=O)c1ncc(-c2cccc(-c3nn[nH]n3)c2)cc1O | > 100 | – |
| O=C(O)CNC(=O)c1ncc(-c2cccc(Cl)c2)cc1O [{[5-(3-Chlorophenyl)-3-hydroxypyridine-2-carbonyl]amino}-acetic acid] | – | stabilization of HIF-1α (immunoblot analysis of nuclear extracts) [5]: stabilization of HIF-1α; erythropoietin level versus vehicle ([4]; mouse serum after oral dosing, FIG. 2): elevated versus vehicle |

The next lines start with results.

| EC50 [1] [µM] | SMILES | other results |
| --- | --- | --- |
| > 100 | COC(=O)CNC(=O)c1ncc(-c2ccc(Cl)cc2)cc1O | – |
| 8.2 | COC(=O)CNC(=O)c1ncc(-c2ccc(C)cc2)cc1O | – |
| 15 | CC(C)c1ccc(-c2cnc(C(=O)NCC(=O)O)c(O)c2)cc1 | – |
| > 100 | CC(C)Oc1ccc(-c2cnc(C(=O)NCC(=O)O)c(O)c2)cc1 | – |
| 7.6 | O=C(O)CNC(=O)c1ncc(-c2cccc(Cl)c2)cc1O [drawing 122] | – |

From US11426393B2, “Prolyl hydroxylase inhibitors and methods of use” (Akebia Therapeutics, Inc., priority 2006, dated 2022)
